Assay [1] relates to Mtb H37Rv. Description: Antimycobacterial activity assay (resazurin colorimetric, whole-cell). Type of assay: cell-based, Mycobacterium tuberculosis. The note with it: Mycobacterium tuberculosis, H37RV.
Assay [2] has as its target T1, CYP121A1 (Mycobacterium tuberculosis, UniProt P9WPP7).
T1 construct: made in house
Description: biochemical. The note with it: UV-Vis screen. Format: binding.

The target in assay [3] is T2, Mtb CYP121A1 (Mycobacterium tuberculosis, UniProt P9WPP7).
T2 construct: His6; made in house
T2 sequence (P9WPP7 whole entry): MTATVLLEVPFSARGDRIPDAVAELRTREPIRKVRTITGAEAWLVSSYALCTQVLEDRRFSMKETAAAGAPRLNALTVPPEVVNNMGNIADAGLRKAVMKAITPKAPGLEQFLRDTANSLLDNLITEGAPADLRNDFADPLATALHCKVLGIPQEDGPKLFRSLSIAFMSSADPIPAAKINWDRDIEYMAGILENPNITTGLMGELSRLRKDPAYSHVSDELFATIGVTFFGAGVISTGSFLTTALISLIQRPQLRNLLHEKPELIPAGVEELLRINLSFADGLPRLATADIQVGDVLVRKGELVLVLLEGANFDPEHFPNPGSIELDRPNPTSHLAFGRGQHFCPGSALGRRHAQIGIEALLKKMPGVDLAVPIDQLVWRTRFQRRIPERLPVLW
Description: biochemical. Type of assay: binding. The note with it: 25 °C, 50 μM CYP121A1, 10% DMSO-d6; read-out: Kd (ITC).

Assay [4] has as its target T1, CYP121A1. Type of assay: biochemical. The following applies: 100 μM compound + 100 μM cYY.
In assay [5] the target is T1, CYP121A1. Type of assay: binding. The note with it: Kd for cYY over the cYY control.
Assay [6] concerns the target T1, CYP121A1. As to the kind of experiment: X-ray crystallographic screening (crystal soaking). Type of assay: binding. The note with it: soaking experiments.

Broadly, the MIC90 is an inhibitory concentration at the 90% level, which refers to growth in some studies and to a panel of isolates in others. Broadly, the Kd is the equilibrium constant for the complex coming apart.

Values after ≈ are worked out from the molar mass of the structure shown. Read-outs that look alike come from different tables or passages of the source.

T1 sequence (P9WPP7 whole entry): as above

Take `c1ccc2c(CCc3ccnc(N4CCOCC4)n3)c[nH]c2c1` [Compound 14, 4-(4-(2-(1H-Indol-3-yl)ethyl)pyrimidin-2-yl)morpholine]: the MIC90 in assay [1] (168 h, Mtb H37Rv, 7H9 with low BSA (0.05% albumin, ADN), one week, read-out: MIC90 7H9-Low BSA) is 25 µM (≈ 7.71 µg/mL); in assay [1] (168 h, Mtb H37Rv, Middlebrook 7H9 with 10% ADC (BSA rich), one week, read-out: MIC90 c7H9) it was 25 µM (≈ 7.71 µg/mL); in assay [1] (336 h, Mtb H37Rv, Mycobacterial Minimal Medium with cholesterol, two weeks, read-out: MIC90 MMM-Ch) it was 12.5 µM (≈ 3.85 µg/mL); in assay [1] (medium not specified or span over the three growth media tested, read-out: MIC90 against Mtb strain H37Rv) it was 12.5 to 25 µM (≈ 3.85 to 7.71 µg/mL). Further, the “Soret band shift (416.5 nm)” value in assay [2] is on record as “lack of shift”. Further, the Kd in assay [3] is around 100 µM. For the same compound, in assay [4], the “Inhibition of CYP121A1 / production of mycocyclosin” value is “markedly reduced the production of mycocyclosin”. This compound had a Fold increase in assay [5] of 1.5. Moreover, the “X-ray crystallographic screening result” value in assay [6] is reported as “hits”.

The record behind these values is article PMC8856928, “A new strategy for hit generation: Novel in cellulo active inhibitors of CYP121A1 from Mycobacterium tuberculosis via a combined X-ray crystallographic and phenotypic screening approach (XP screen)” (European Journal of Medicinal Chemistry, 2022).
